Test results published in US20230151025A1, “SUBSTITUTED THIAZOLOPYRIDINES, SALTS THEREOF AND THEIR USE AS HERBICIDALLY ACTIVE SUBSTANCES” (Bayer Aktiengesellschaft, priority 2020, published 2023).

Experiments:
Assay type in all cases: in vivo
Poa annua (POAAN) [1] = assay: Herbicidal pre-emergence action (A), 1280 g/ha; settings: visual grading after ca. 3 weeks vs untreated controls, 100% = plants have died off, 0% = as control plants
Outline: (§1)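 Pre-emergence soil-surface spray, 600 l/ha water, 0.5% additive, WP or EC formulation. Sandy loam, double sowing per pot, greenhouse under optimum growth. Visual % damage at ~3 wk vs untreated; 100% = plants died off.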

Stellaria media (STEME) [2] = assay: Herbicidal pre-emergence action (A), 1280 g/ha; settings: visual grading after ca. 3 weeks vs untreated controls
Outline: as §1

[3] = tested on: Digitaria sanguinalis (DIGSA); assay: Herbicidal pre-emergence action (A), 1280 g/ha; settings: visual grading after ca. 3 weeks vs untreated controls, 100% = plants have died off, 0% = as control plants
Outline: as §1

[4] = tested on: Alopecurus myosuroides (ALOMY); assay: Herbicidal pre-emergence action (A), 1280 g/ha; settings: visual grading after ca. 3 weeks vs untreated controls, 100% = plants have died off, 0% = as control plants
Outline: as §1

[5] = tested on: Amaranthus retroflexus (AMARE); assay: Herbicidal pre-emergence action (A), 1280 g/ha; settings: visual grading after ca. 3 weeks vs untreated controls
Outline: as §1

Veronica persica (VERPE) [6] = assay: Herbicidal pre-emergence action (A), 1280 g/ha; settings: visual grading after ca. 3 weeks vs untreated controls
Outline: as §1

[7] = tested on: Kochia scoparia (KCHSC; Bassia scoparia); assay: Herbicidal pre-emergence action (A), 1280 g/ha; settings: visual grading after ca. 3 weeks vs untreated controls
Outline: as §1

[8] = tested on: Echinochloa crus-galli (ECHCG); assay: Herbicidal pre-emergence action (A), 1280 g/ha; settings: visual grading after ca. 3 weeks vs untreated controls, 100% = plants have died off, 0% = as control plants
Outline: as §1

Setaria viridis (SETVI) [9] = assay: Herbicidal pre-emergence action (A), 1280 g/ha; settings: visual grading after ca. 3 weeks vs untreated controls
Outline: as §1

Lolium rigidum (LOLRI) [10] = assay: Herbicidal pre-emergence action (A), 1280 g/ha; settings: visual grading after ca. 3 weeks vs untreated controls, 100% = plants have died off, 0% = as control plants
Outline: as §1

[11] = tested on: Alopecurus myosuroides (ALOMY); assay: Herbicidal pre-emergence action (C), 320 g/ha; settings: ca. 3 weeks
Outline: (§2)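 Pre-emergence greenhouse test: visual damage rating at about 3 weeks relative to untreated plants, 100% meaning death and 0% no effect. Compounds, as wettable powders or emulsifiable concentrates with 0.5% additive, were applied at 320 g/ha (600 l water/ha) onto soil covering seeds sown in sandy loam.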

[12] = tested on: Amaranthus retroflexus (AMARE); assay: Herbicidal pre-emergence action (C), 320 g/ha; settings: ca. 3 weeks
Outline: as §2

Veronica persica (VERPE) [13] = assay: Herbicidal pre-emergence action (C), 320 g/ha; settings: ca. 3 weeks
Outline: as §2

Setaria viridis (SETVI) [14] = assay: Herbicidal pre-emergence action (C), 320 g/ha; settings: ca. 3 weeks
Outline: as §2

[15] = tested on: Amaranthus retroflexus (AMARE); assay: Herbicidal post-emergence action (D), 320 g/ha; settings: ca. 3 weeks
Outline: (§3)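 Post-emergence greenhouse test. Sandy loam; spray at single-leaf stage (2–3 wk after sowing); WP or EC in water + 0.5% additive, 600 l/ha. Visual rating ~3 wk post-spray, % effect vs untreated (0 = control, 100 = dead).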

Poa annua (POAAN) [16] = assay: Herbicidal post-emergence action (B), 1280 g/ha; settings: rated visually after about 3 weeks vs untreated controls
Outline: (§4)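 Percent activity is a visual score taken about 3 weeks after treatment, relative to untreated plants, where 100% means the plants died and 0% means no difference from controls. Plants were sprayed on green parts at the one-leaf stage with an aqueous suspension or emulsion containing 0.5% additive at 600 L/ha.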

Stellaria media (STEME) [17] = assay: Herbicidal post-emergence action (B), 1280 g/ha
Outline: as §4

[18] = tested on: Abutilon theophrasti (ABUTH); assay: Herbicidal post-emergence action (B), 1280 g/ha; settings: rated visually after about 3 weeks vs untreated controls
Outline: as §4

[19] = tested on: Digitaria sanguinalis (DIGSA); assay: Herbicidal post-emergence action (B), 1280 g/ha; settings: rated visually after about 3 weeks vs untreated controls
Outline: as §4

[20] = tested on: Alopecurus myosuroides (ALOMY); assay: Herbicidal post-emergence action (B), 1280 g/ha; settings: rated visually after about 3 weeks vs untreated controls
Outline: as §4

[21] = tested on: Amaranthus retroflexus (AMARE); assay: Herbicidal post-emergence action (B), 1280 g/ha; settings: rated visually after about 3 weeks vs untreated controls
Outline: as §4

Veronica persica (VERPE) [22] = assay: Herbicidal post-emergence action (B), 1280 g/ha
Outline: as §4

[23] = tested on: Kochia scoparia (KCHSC; Bassia scoparia); assay: Herbicidal post-emergence action (B), 1280 g/ha
Outline: as §4

Lolium rigidum (LOLRI) [24] = assay: Herbicidal post-emergence action (B), 1280 g/ha; settings: one-leaf stage, rated after about 3 weeks vs untreated controls, 100% activity = the plants have died, 0% = like control plants
Outline: as §4

[25] = tested on: Abutilon theophrasti (ABUTH); assay: Herbicidal pre-emergence action (A), 1280 g/ha; settings: visual grading after ca. 3 weeks vs untreated controls, 100% = plants have died off, 0% = as control plants
Outline: as §1

[26] = tested on: Matricaria inodora (MATIN); assay: Herbicidal pre-emergence action (A), 1280 g/ha; settings: visual grading after ca. 3 weeks vs untreated controls
Outline: as §1

[27] = tested on: Echinochloa crus-galli (ECHCG); assay: Herbicidal pre-emergence action (C), 320 g/ha; settings: ca. 3 weeks
Outline: as §2

[28] = tested on: Echinochloa crus-galli (ECHCG); assay: Herbicidal post-emergence action (B), 1280 g/ha; settings: rated visually after about 3 weeks vs untreated controls
Outline: as §4

Setaria viridis (SETVI) [29] = assay: Herbicidal post-emergence action (B), 1280 g/ha; settings: rated visually after about 3 weeks vs untreated controls
Outline: as §4

Lolium rigidum (LOLRI) [30] = assay: Herbicidal pre-emergence action (C), 320 g/ha; settings: ca. 3 weeks
Outline: as §2

[31] = tested on: Alopecurus myosuroides (ALOMY); assay: Herbicidal post-emergence action (D), 320 g/ha; settings: ca. 3 weeks
Outline: as §3

Veronica persica (VERPE) [32] = assay: Herbicidal post-emergence action (D), 320 g/ha; settings: ca. 3 weeks
Outline: as §3

[33] = tested on: Digitaria sanguinalis (DIGSA); assay: Herbicidal pre-emergence action (C), 320 g/ha; settings: ca. 3 weeks
From the text: Seeds of mono- and dicotyledonous weed plants and crop plants were sown, in plastic or organic planting pots, in sandy loam and covered with soil. The compounds according to the invention, formulated in the form of wettable powders (WP) or as emulsifiable concentrates (EC), were applied to the surface of the covering soil as aqueous suspension or emulsion, with the addition of 0.5% of an additive, at an application rate of 600 l of water/ha (converted).
Following treatment, the pots were placed in a greenhouse and kept under optimum growth conditions for the test plants. The visual grading of the damage to the test plants was carried out after ca. 3 weeks in comparison to untreated controls (herbicidal effect in percent (%): 100% effect=plants have died off, 0% effect=as control plants).
Tables C1 to C13 below show the effects of selected compounds of the general formula (I) according to table 1 on various harmful plants and an application rate corresponding to 320 g/ha obtained by the experimental procedure mentioned above.

[34] = tested on: Matricaria inodora (MATIN); assay: Herbicidal post-emergence action (B), 1280 g/ha; settings: rated visually after about 3 weeks vs untreated controls
Outline: as §4

| Structure (SMILES) | POAAN, herbicidal effect in percent (%) (Poa annua (POAAN) [1]) | herbicidal effect STEME (Stellaria media (STEME) [2]) [%] | DIGSA, herbicidal effect in percent (%) [3] [%] | ALOMY, herbicidal effect in percent (%) [4] [%] | herbicidal effect AMARE [5] [%] | herbicidal effect VERPE (Veronica persica (VERPE) [6]) [%] | herbicidal effect KCHSC [7] [%] | ECHCG, herbicidal effect in percent (%) [8] [%] | herbicidal effect SETVI (Setaria viridis (SETVI) [9]) [%] | LOLRI, herbicidal effect in percent (%) (Lolium rigidum (LOLRI) [10]) | herbicidal effect AMARE [12] [%] | herbicidal effect SETVI (Setaria viridis (SETVI) [14]) [%] | herbicidal activity POAAN (Poa annua (POAAN) [16]) [%] | herbicidal effect STEME (Stellaria media (STEME) [17]) [%] | herbicidal activity ABUTH [18] [%] | herbicidal activity ALOMY [20] [%] | herbicidal activity AMARE [21] [%] | herbicidal effect VERPE (Veronica persica (VERPE) [22]) [%] | herbicidal effect KCHSC [23] [%] | LOLRI, activity rated visually (%) (Lolium rigidum (LOLRI) [24]) | further results |
| --- | --- | --- | --- | --- | --- | --- | --- | --- | --- | --- | --- | --- | --- | --- | --- | --- | --- | --- | --- | --- | --- |
| Fc1cccc(-c2nc3ncsc3cc2Cl)c1 [Example I-068] | 100 | 100 | 100 | 100 | 90 | 90 | 100 | 100 | 100 | 100 | 90 | 100 | 100 | 90 | 90 | 90 | 90 | 100 | 100 | 90 | herbicidal effect ALOMY [11]: 100%; herbicidal effect VERPE (Veronica persica (VERPE) [13]): 80%; herbicidal effect AMARE [15]: 90%; herbicidal activity DIGSA [19]: 100% |
| Cc1ccccc1-c1ccc2scnc2n1 [Example I-105] | 100 | 100 | 100 |  | 90 |  | 100 | 100 | 100 | 100 |  |  | 100 | 100 | 90 |  | 100 |  |  | 100 | ABUTH, herbicidal effect in percent (%) [25]: 90%; herbicidal effect MATIN [26]: 100%; herbicidal effect ECHCG [27]: 90%; herbicidal activity ECHCG [28]: 100%; herbicidal activity SETVI (Setaria viridis (SETVI) [29]): 90% |
| Clc1ccccc1-c1nc2ncsc2cc1Cl [Example I-069] | 100 | 90 | 100 | 100 |  | 90 | 90 | 100 | 100 | 90 | 90 | 100 | 100 | 100 |  | 100 | 90 | 100 | 90 | 90 | herbicidal effect MATIN [26]: 90%; herbicidal effect ALOMY [11]: 100%; herbicidal effect VERPE (Veronica persica (VERPE) [13]): 90%; herbicidal effect ECHCG [27]: 100%; herbicidal effect LOLRI (Lolium rigidum (LOLRI) [30]): 100%; herbicidal effect ALOMY [31]: 90%; herbicidal effect AMARE [15]: 80%; herbicidal effect VERPE (Veronica persica (VERPE) [32]): 90%; herbicidal effect DIGSA [33]: 100%; herbicidal activity ECHCG [28]: 100%; herbicidal activity SETVI (Setaria viridis (SETVI) [29]): 90% |
| Cc1ccsc1-c1nc2ncsc2cc1Br [Example I-132] | 100 | 90 | 100 | 100 | 100 | 100 | 100 | 100 | 100 | 100 | 90 | 100 | 90 | 100 | 90 | 100 | 90 | 100 | 90 | 100 | herbicidal effect MATIN [26]: 90%; herbicidal effect ECHCG [27]: 100%; herbicidal effect LOLRI (Lolium rigidum (LOLRI) [30]): 100%; herbicidal activity MATIN [34]: 90%; herbicidal activity DIGSA [19]: 90%; herbicidal activity ECHCG [28]: 100%; herbicidal activity SETVI (Setaria viridis (SETVI) [29]): 90% |
